The results in this text go back to patent US20240140975A1, “ANTIVIRAL APPLICATION OF NUCLEOSIDE ANALOG OR COMBINATION FORMULATION CONTAINING NUCLEOSIDE ANALOG” (priority 2020, published 2024).

Like-named read-outs stand apart in the source and are kept apart here.

Series [1] concerns human coronavirus OC43 (HCoV OC43). Briefly: Cytopathic effect (CPE) assay, HCoV OC43 in Huh7. The conditions noted are these: Betacoronavirus 1, OC43, Huh-7, Huh7 cells. It counts as cell-based. As for the experimental part: The inhibitory effects of compounds on the replication of respiratory syncytial virus (RSV), human coronavirus OC43, influenza A virus, Zika virus (Zika) were tested using cytopathic effect (CPE) assay.
Experimental cells were inoculated in 96-well cell culture plate at a certain cell density, and cultured in an incubator (5% CO2, 37° C.) overnight. Compounds and viruses were added on the second day. […] Then cell viability of each well was detected using Cell Titer-Glo or CCK-8. […] The cytotoxicity test method was the same as the corresponding antiviral test method without virus infection.
The antiviral activity and cytotoxicity of the compounds are respectively indicated by the inhibition rate (%) of compounds on virus-induced cellular viral effects and cell viability (%). Calculating formulas are as follows:
Inhibition rate (%)=(reading value of test well—average value of virus control)/(average value of cell control—average value of virus control)×100;
EC50 and CC50 value are calculated by Prism software, and the inhibition curve fitting method is “log (inhibitor) vs. response—Variable slope”.
For orientation: Protection from cytopathic effect is a common read-out in antiviral testing.

The subject of series [2] is respiratory syncytial virus (RSV). Briefly: Cytopathic effect (CPE) assay, RSV in HEp-2. The conditions noted are these: human respiratory syncytial virus, HEp-2 cells. The class given is cell-based.
The subject of the next series is Zika virus (Zika). Kind of series: Cytopathic effect (CPE) assay, Zika virus in Huh7. The conditions noted are these: for EC50: Huh-7, Huh7 cells, CPE. The class given is cell-based.
Series [3] in a line: in vitro. Particulars: human.
Series [4] deals with porcine epidemic diarrhea virus (PEDV). Kind of series: Anti-porcine epidemic diarrhea virus (PEDV) activity test in Vero cells, fluorescence quantitative PCR. The class given is cell-based. Particulars: 36 h.
Series [5] in a line: in vitro. Particulars: human. This is another data set of the same source.
Series [6] has as its system 2019 novel coronavirus (SARS-CoV-2). Briefly: microbe, parasite or virus in culture. The class given is cell-based. Particulars: Vero E6 cells, 24 h p.i.; for inhibition at 5 µM: Severe acute respiratory syndrome coronavirus 2, Vero C1008, 24 h, read-out: Inhibition Rate (5 μM); for EC50: Severe acute respiratory syndrome coronavirus 2, Vero C1008, read-out: EC50.
Series [7] is described as follows: Pharmacokinetic evaluation in mice.
Another series is described as follows: in vivo. The conditions noted are these: male, CD-1, mouse.
On the set-up of series [8]: species or system SD rats. Particulars: male, Sprague-Dawley (SD), rat, in vivo. On the procedure:
18 male SD rats were randomly divided into 6 groups, with 3 rats for each group. Before the experiment, they were fasted for 12 hours (not for the intravenous experiment group) and allowed to drink water. 4 hours after dosing, the animals were fed. Among them, 3 groups were intragastrically administered with 10 mg/kg of A9, A146 and A151, respectively, and the remaining 3 groups were intravenously administered with 2 mg/kg of A9, A146 and A151, respectively. The vehicle for administration was DMSO/EtOH/PEG300/0.9% NaCl (5/5/40/50, v/v/v/v).
5 min (intravenous only), 0.25, 0.5, 1.0, 2.0, 4.0, 6.0, 8.0 and 24 h post administration, 0.2 mL of blood sample was collected from jugular vein into EDTA-K2 tubes, and centrifuged at 11000 rpm for 5 min. The plasma was separated, and frozen in a refrigerator at −70° C. for testing. The operation was conducted in an ice water bath. The concentration of A9 in plasma was determined by LC-MS-MS, and the pharmacokinetic parameters were calculated.

Series [9] relates to dengue fever virus (DENV). Briefly: Dengue virus plaque reduction test in Vero cells. It counts as cell-based. The conditions noted are these: Dengue virus, read-out: DENV (Vero) 5 μM (inhibition rate), 5 μM, plaque reduction. A general note: Plaques are areas of infected cells; plaque reduction assays count them against a control.
A short description of series [10]: Tissue distribution test in mice. It counts as in vivo, CD-1 mice. The conditions noted are these: oral administration of A151, liver, kidney, lung, heart. On the procedure: 16 male CD-1 mice were randomly divided into 4 groups, with 4 mice for each group.
Before the experiment, they were fasted for 12 hours and allowed to drink water. 2 hours after dosing, the animals were fed. The 4 groups were given 200 mg/kg A151 (dissolved in DMSO-enthanol-PEG300-saline, volume ratio: 5/5/40/50) by intragastric administration. At 1 h, 2 h, 4 h and 8 h after administration, the mice were anesthetized; blood sample was collected by heart puncture, and tissues of liver, kidney, heart and lung were harvested. The distribution profile of A9 in the tissues was determined by HPLC-MS/MS.

Series [11] concerns the target RNA-dependent RNA polymerase (RdRp) of 2019 novel coronavirus (SARS-CoV-2) (Severe acute respiratory syndrome coronavirus 2 (2019-nCoV) (SARS-CoV-2), UniProt P0DTD1). Briefly: Inhibition of RdRp of novel coronavirus, fluorescence method. Particulars: RdRp of novel coronavirus. The class given is biochemical. As for the experimental part: According to the method reported in the literature (Virus Genes, 2015, 50:498-504), the inhibitory activity of the compound of the invention on RNA-dependent RNA polymerase (RdRp) of 2019 novel coronavirus (SARS-CoV-2) was determined using the fluorescence method: after the solution of the novel coronavirus RdRp, substrate, compound solution, buffer solution, etc were co-incubated for 1 hour, fluorescent DNA binding dye was added. 10 minutes later, data collection was carried out and the inhibitory activities of the compounds on RdRp were determined.

Setting [12] is: Porcine epidemic diarrhea virus, Vero.
Where [13] appears, read: male, CD-1, mouse, in vivo, po, 50 mg/kg.

Broadly, the EC50 is the concentration needed to bring the measured effect to its halfway point. Broadly, the inhibition is how much of the control response was suppressed. As to `[2H]c1cc([C@]2(C#N)O[C@H](COC(=O)C(C)C)[C@@H](O)[C@H]2O)n2ncnc(N)c12` [Compound A70], the values for the EC50 in [1], in [2] and in [4] (setting [12]) were 1900 nM, 580 nM and 2 nM, respectively. Further, the inhibition at 5 µM was roughly 27% in the series on Zika virus (Zika) (Huh-7, 5 μM, Huh7 cells) and 99% in series [6]. Also, the CC50 in the series “in vitro [3]” and in the series “in vitro [5]” was greater than 10000 nM in each case.
In general, AUC(0-inf) refers to total exposure, with the tail of the curve extrapolated. Usually AUC(0-t) stands for exposure summed from dosing to a finite time, without extrapolation to infinity. For orientation: Cmax means the maximum level reached in the sampled fluid or tissue. The Tmax is the time from dosing to the highest level. The term half-life denotes the time needed for the level to fall by half in the phase considered. In series [1], `[2H]c1cc([C@]2(C#N)O[C@H](C([2H])([2H])O)[C@@H](O)[C@H]2O)n2ncnc(N)c12` (stereo in doubt) [Compound A11] displayed an EC50 of 1990 nM. For the same compound, the half-maximal effective concentration (EC50) in series [2] was found to be 660 nM. In series [7] (setting [13]), the AUC(0-inf) worked out at 5750 ng·h/mL, the AUC(0-t) was found to be 5680 ng·h/mL, the highest level (Cmax) was 2120 ng/mL and the Tmax turned out to be 0.7 h. For the same compound, the half-life in the series “in vivo” (po, 50 mg/kg) was 1.9 h. The same compound gave a CC50 in “in vitro [3]” greater than 10000 nM. Further, the EC50 in [4] (setting [12]) was found to be 5 nM. The same compound registered a CC50 in “in vitro [5]” greater than 10000 nM. Further, the inhibition at 5 µM in [6] is greater than 98%.
Consider `[2H]C([2H])(O)[C@H]1O[C@@](C#N)(c2ccc3c(N)ncnn23)[C@H](O)[C@@H]1O` [Compound A10], for which the EC50 in [1] amounted to 1980 nM. Moreover, the EC50 in series [2] was 630 nM. In series [7] (setting [13]), the AUC(0-inf) worked out at 4620 ng·h/mL, the AUC(0-t) was determined as 4550 ng·h/mL, the Cmax came to 1760 ng/mL and the Tmax worked out at 0.8 h. In addition, in the series “in vivo” (po, 50 mg/kg), the half-life is 1.3 h. The CC50 in “in vitro [3]” is greater than 10000 nM. Besides, in [4] (setting [12]), it took 6 nM to reach a half-maximal effect (EC50). In “in vitro [5]”, this compound registered a CC50 greater than 10000 nM. In series [6], the inhibition at 5 µM is 99% and the EC50 came to 430 nM.
For `[2H]c1cc([C@]2(C#N)O[C@H](CO)[C@@H](O)[C@H]2O)n2ncnc(N)c12` [Compound A9], the EC50 in series [1] worked out at 1770 nM; in series [2] it was 560 nM; with Zika virus (Zika), 12000 nM; in series [4] (setting [12]) it was 16 nM; in series [6], 440 nM. The compound further displayed an AUC(0-inf) in series [7] (setting [13]) of 6010 ng·h/mL. This compound yielded an AUC(0-t) in [7] (setting [13]) of 5980 ng·h/mL. Further, the highest level in series [7] (setting [13]) (Cmax) was 3230 ng/mL. Moreover, in series [7] (setting [13]), the Tmax came out at 1.2 h. For the same compound, the half-life in “in vivo” (po, 50 mg/kg) was 1 h. The CC50 in “in vitro [3]” and in the series “in vitro [5]” was greater than 10000 nM in each case. In addition, in series [8], the “F % (oral bioavailability)” value was determined as 21.3%. In addition, the “T1/2” value in [8] (iv, 2 mg/kg) is reported as 2.3 h; in series [8] (po, 10 mg/kg) it was 3.4 h. Also, the inhibition at 5 µM is 100% in series [9] and 99% in series [6].
In the case of `N#C[C@@]1(c2ccc3c(N)ncnn23)O[C@H](CO)[C@@H](O)[C@H]1O` [GS-441524, reference compound], the EC50 in series [1] was found to be 1880 nM; in [2], 730 nM; in the series on Zika virus (Zika), 15000 nM; in series [4] it was 26 nM; in series [6], 480 nM. Also, the AUC(0-inf) was 14600 ng·h/mL in [7] (male, CD-1, mouse, in vivo, iv, 25 mg/kg) and 4620 ng·h/mL in [7] (setting [13]). For the same compound, the “Tmax” value in series [7] (mice, p.o. 50 mg/kg, plasma) was determined as 0.8 h. The half-life in the series “in vivo” (iv, 25 mg/kg) was 1 h; in “in vivo” (po, 50 mg/kg), 1.2 h. Besides, the CC50 in “in vitro [3]” and in the series “in vitro [5]” was greater than 10000 nM each time. In addition, the inhibition at 5 µM in series [6] was found to be 99%.
For `[2H]c1cc([C@]2(C#N)O[C@H](COC(=O)C(C)C)[C@@H](OC(=O)C(C)C)[C@H]2OC(=O)C(C)C)n2ncnc(N)c12` [Compound A151], the EC50 is 1990 nM in [1], 630 nM in series [2], less than 100 nM in [4] (setting [12]) and 310 nM in series [6]. For the same compound, in series [10], the “tissue distribution of metabolite A9 (in words)” value is on record as “evenly distributed, without accumulation in liver or kidney”. This compound also gave a CC50 in “in vitro [3]” greater than 10000 nM. Besides, the “F % (oral bioavailability)” value in series [8] is given as 56.7%. The “T1/2” value amounted to 1.5 h in [8] (iv, 2 mg/kg) and 2.6 h in series [8] (po, 10 mg/kg). Moreover, in [6], the inhibition at 5 µM is 99%.
Take `[2H]C([2H])(OP(=O)(O)OP(=O)(O)OP(=O)(O)O)[C@H]1O[C@@](C#N)(c2ccc3c(N)ncnn23)[C@H](O)[C@@H]1O` [Compound A107]: the “inhibition of the activity of RdRp (in words)” value in series [11] is reported as “significantly inhibit the activity of RdRp”.
